Key:
Assay type in all cases: functional
Bombyx mori [1] = experiment: Induction of precocious metamorphosis-inducing activity against fourth-instar larvae of Bombyx mori Shunrei x shogetsu at >80 ug treated topically
Bombyx mori [2] = experiment: Induction of precocious metamorphosis-inducing activity against fourth-instar larvae of Bombyx mori Shunrei x shogetsu compound treated topically
Bombyx mori [3] = experiment: Induction of precocious metamorphosis-inducing activity against fourth-instar larvae of Bombyx mori Shunrei x shogetsu at >160 ug treated topically
Bombyx mori [4] = experiment: Induction of precocious metamorphosis-inducing activity against fourth-instar larvae of Bombyx mori Shunrei x shogetsu at 40 ug treated topically in presence of 0.01 ug tebufenozide
Bombyx mori [5] = experiment: Induction of precocious metamorphosis-inducing activity against fourth-instar larvae of Bombyx mori Shunrei x shogetsu at 40 ug treated topically in presence of 10 ug methoprene
Bombyx mori [6] = experiment: Induction of precocious metamorphosis-inducing activity against fourth-instar larvae of Bombyx mori Shunrei x shogetsu at 40 ug treated topically
Bombyx mori [7] = experiment: Induction of precocious metamorphosis-inducing activity against fourth-instar larvae of Bombyx mori Shunrei x shogetsu at >40 ug treated topically

Row | SMILES | Activity (Bombyx mori [1]) | ED50 (Bombyx mori [2]) | other results
1 | CCCCOc1ccc(-n2ccnc2)cc1 | 0% | >80 µg | –
2 | CC(C)(C)c1ccc(OCCCn2ccnc2)cc1 | 20% | >80 µg | –
3 | CCc1ccc(OCCn2ccnc2)cc1 | – | >160 µg | Activity (Bombyx mori [3]): 11%
4 | c1ccc(OCCCn2ccnc2)cc1 | 0% | >80 µg | –
5 | CCc1cccc(OCCCn2ccnc2)c1 | – | 36 µg | –
6 | c1ccc(Oc2ccc(OCCCn3ccnc3)cc2)cc1 | 0% | >80 µg | –
7 | c1ccc(COc2ccc(OCCCn3ccnc3)cc2)cc1 | – | >160 µg | Activity (Bombyx mori [3]): 0%
8 | CCCCCCOc1ccc(OCCCn2ccnc2)cc1 | – | 36 µg | –
9 | CCCCOc1ccc(OCCCn2ccnc2)cc1 | – | 27 µg | –
10 | CCC(C)c1ccc(OCCCn2ccnc2)cc1 (stereo not given) | – | 91 µg | –
11 | CCCc1ccc(OCCCn2ccnc2)cc1 | – | 16 µg | Activity (Bombyx mori [4]): 0%; Activity (Bombyx mori [5]): 0%; Activity (Bombyx mori [6]): 100%
12 | Clc1ccc(OCCCn2ccnc2)cc1 | 11% | >80 µg | –
13 | CCc1ccccc1OCCCn1ccnc1 | 0% | >80 µg | –
14 | CCc1ccc(OCCCCn2ccnc2)cc1 | – | >160 µg | Activity (Bombyx mori [3]): 20%
15 | CCc1ccc(OCCCn2ccnc2)cc1 | – | 17 µg | –
16 | CCCCCCCCCCOc1ccc(-n2ccnc2)cc1 | 33% | >80 µg | –
17 | CCCCCCOc1ccc(-n2ccnc2)cc1 | – | 63 µg | –
18 | CCCCCCCCOc1ccc(-n2ccnc2)cc1 | – | 40 µg | –
19 | CC(C)=CCCC(C)CCn1ccnc1 (stereo not given) | – | >40 µg | Activity (Bombyx mori [7]): 20%
20 | CCCCCCCCn1ccnc1 | – | >40 µg | Activity (Bombyx mori [7]): 0%
21 | CCCCCCCCCCCCn1ccnc1 | – | 15 µg | Activity (Bombyx mori [4]): 0%; Activity (Bombyx mori [5]): 0%; Activity (Bombyx mori [6]): 100%
22 | c1ccc(CCn2ccnc2)cc1 | 0% | >80 µg | –
23 | CCCCCCCCCCn1ccnc1 | – | 18 µg | –
24 | CCCCCCCCCCCCCCn1ccnc1 | – | 30 µg | –
25 | c1ccc(Cn2ccnc2)cc1 [BENZYLIMIDAZOLE] | 0% | >80 µg | –

From ChEMBL document CHEMBL3046881, “Precocious Metamorphosis-Inducing Activity of 1-Substituted Imidazoles” (1996)
